The target of the experiment is PAI-1 (Homo sapiens, UniProt P05121). The experiment can be described thus: PAI-1 inhibition in the S2251 chromogenic substrate assay (PAI functional assay). It is filed as biochemical. The note with it: for INHIBITION OF PAI-1 (degree of inhibition): Table 1, first part, unit assumed; for inhibition at 20 µM / inhibition at 100 µM / inhibition at 50 µM: Table 1, second part, read-out: INHIBITION OF PAI-1 (degree of inhibition). Here is the method:
In this assay, a compound is incubated with PAI-1 prior to addition to the tPA assay system. Inhibition of PAI-1 results in the production of plasmin from plasminogen. […]
Compounds of formula (A) were tested in a PAI chromogenic substrate assay. […] In turn, the plasmin cleaved the chromogenic substrate S2251 (Kabi-Vitrum) producing pNA (p-nitroaniline) which was detected scectrophotometrically at 405 nm.

The term IC50 denotes the concentration at which inhibition is half-maximal. A lower IC50 goes with higher potency. What is called inhibition is the relative decrease from the control value, in per cent.

Where a name gives a salt, the structure may show the parent alone.

PAI-1, sequence (P05121 24-402): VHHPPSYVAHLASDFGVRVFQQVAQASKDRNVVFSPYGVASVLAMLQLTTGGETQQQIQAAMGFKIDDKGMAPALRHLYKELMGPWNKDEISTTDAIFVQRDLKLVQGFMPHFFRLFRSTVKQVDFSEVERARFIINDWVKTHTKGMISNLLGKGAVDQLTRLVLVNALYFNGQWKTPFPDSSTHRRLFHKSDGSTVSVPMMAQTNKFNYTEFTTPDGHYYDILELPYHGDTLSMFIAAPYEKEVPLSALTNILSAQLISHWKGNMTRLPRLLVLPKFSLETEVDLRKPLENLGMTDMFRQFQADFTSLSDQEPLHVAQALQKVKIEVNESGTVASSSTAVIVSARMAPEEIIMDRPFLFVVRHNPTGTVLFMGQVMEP

For `O=c1[nH]/c(=C\C2CCCCC2)c(=O)[nH]/c1=C\c1ccccc1` [Compound 1884, (3Z,6Z)-3-Benzylidene-6-cyclohexylmethylene-2,5-piperazinedione], the INHIBITION OF PAI-1 (degree of inhibition) came out at 0% (6.25 μm); 0% (12.5 μm); 0% (25 μm); 14% (50 μm); 40% (100 μm).

`COc1ccc(/C=c2\[nH]c(=O)/c(=C/c3ccc(OC(=O)CN4C(=O)c5ccccc5C4=O)cc3)[nH]c2=O)cc1` [Compound 1886, (3Z,6Z)-3-(4-Methoxybenzylidene)-6-(4-phthalimidoacetoxybenzylidene)-2,5-piperazinedione]: the INHIBITION OF PAI-1 (degree of inhibition) (6.25 μm) came to 0%; the INHIBITION OF PAI-1 (degree of inhibition) (12.5 μm) amounted to 6%; the INHIBITION OF PAI-1 (degree of inhibition) (25 μm) was determined as 18%; the INHIBITION OF PAI-1 (degree of inhibition) (50 μm) came out at 40%; the INHIBITION OF PAI-1 (degree of inhibition) (100 μm) was 42%.

Take `CCOC(OCC)c1ccc(/C=c2\[nH]c(=O)/c(=C/c3ccccc3)[nH]c2=O)cc1` [Compound 1891]: the INHIBITION OF PAI-1 (degree of inhibition) reads like this: (6.25 μm) 3%; (12.5 μm) 3%; (25 μm) 17%; (50 μm) 36%; (100 μm) 28%.

As for `O=c1[nH]/c(=C\c2ccc(OCCn3ccnc3)cc2)c(=O)[nH]/c1=C\c1ccccc1` [Compound 1910, (3Z,6Z)-3-Benzylidene-6-(4-(2-imidazolylethoxy)benzylidene)-2,5-piperazinedione], the INHIBITION OF PAI-1 (degree of inhibition) by setting is: (6.25 μm) 63%; (12.5 μm) 61%; (25 μm) 50%; (50 μm) 36%; (100 μm) 27%. Under “PAI-1, S2251 assay, Table 2”, this compound registered an IC50 of 5 to 10 µM.

As for `CN(C)c1ccc(C=C/C=c2\[nH]c(=O)/c(=C/c3ccccc3)[nH]c2=O)cc1` [Compound 1921, (3Z,6Z)-3-Benzylidene-6-(4-dimethylaminocinnamylidene)-2,5-piperazinedione], the INHIBITION OF PAI-1 (degree of inhibition) by setting is: (6.25 μm) 16%; (12.5 μm) 14%; (25 μm) 25%; (50 μm) 43%; (100 μm) 65%.

As for `O=c1[nH]/c(=C\c2ccccc2)c(=O)[nH]/c1=C\C=C(c1ccccc1)c1ccccc1` [Compound 1922, (3Z,6Z)-3-Benzylidene-6-(γ-phenylcinnamylidene)-2,5-piperazinedione], the INHIBITION OF PAI-1 (degree of inhibition) runs as follows: (6.25 μm) 14%; (12.5 μm) 13%; (25 μm) 26%; (50 μm) 11%; (100 μm) 13%.

With `O=c1[nH]/c(=C\c2ccccc2)c(=O)[nH]/c1=C\C=Cc1ccc([N+](=O)[O-])cc1` [Compound 1923], the INHIBITION OF PAI-1 (degree of inhibition) runs as follows: (6.25 μm) 13%; (12.5 μm) 12%; (25 μm) 20%; (50 μm) 31%; (100 μm) 38%.

Take `O=c1[nH]/c(=C\c2c[nH]cn2)c(=O)[nH]/c1=C\c1ccccc1` [Compound 1926, (3Z,6Z)-3-Benzylidene-6-(4-imidazolyl)methylene-2,5-piperazinedione]: the INHIBITION OF PAI-1 (degree of inhibition) is 10% (6.25 μm); 6% (12.5 μm); 12% (25 μm); 35% (50 μm); 36% (100 μm).

Take `Cc1[nH]cnc1/C=c1\[nH]c(=O)/c(=C/c2ccccc2)[nH]c1=O` [Compound 1927, (3Z,6Z)-3-Benzylidene-6-(4-(5-methylimidazolyl))methylene-2,5-piperazinedione]: the INHIBITION OF PAI-1 (degree of inhibition) runs as follows: (6.25 μm) 14%; (12.5 μm) 22%; (25 μm) 20%; (50 μm) 39%; (100 μm) 33%.

In turn, `O=c1[nH]/c(=C\c2ccc(Cn3ccnc3)cc2)c(=O)[nH]/c1=C\c1ccccc1` [Compound 1929, (3Z,6Z)-3-Benzylidene-6-(4-(1-imidazolylmethyl)benzylidene)-2,5-piperazinedione] displayed an INHIBITION OF PAI-1 (degree of inhibition) (6.25 μm) of 16%; an INHIBITION OF PAI-1 (degree of inhibition) (12.5 μm) of 48%; an INHIBITION OF PAI-1 (degree of inhibition) (25 μm) of 59%; an INHIBITION OF PAI-1 (degree of inhibition) (50 μm) of 45%; an INHIBITION OF PAI-1 (degree of inhibition) (100 μm) of 27%.

As for `O=c1[nH]/c(=C\c2ccc(-n3ccnc3)cc2)c(=O)[nH]/c1=C\c1ccccc1` [Compound 1930], the INHIBITION OF PAI-1 (degree of inhibition) amounted to 30% (6.25 μm); 38% (12.5 μm); 79% (25 μm); 61% (50 μm); 54% (100 μm).

Turning to `COc1cc(C=C/C=c2\[nH]c(=O)/c(=C/c3ccccc3)[nH]c2=O)ccc1OCCN(C)C` [Compound 1950, (3Z,6Z)-3-Benzylidene-6-(4-(2-dimethylaminoethoxy)-3-methoxycinnamylidene)-2,5-piperazinedione], the INHIBITION OF PAI-1 (degree of inhibition) was 1% (6.25 μm); 2% (12.5 μm); 2% (25 μm); 3% (50 μm); 19% (100 μm).

Take `COc1cc(/C=c2\[nH]c(=O)/c(=C/c3ccccc3)[nH]c2=O)ccc1OCCN(C)C` [Compound 1959, (3Z,6Z)-3,Benzylidene-6-(4-(2-dimethylaminoethoxy)-3-methoxybenzylidene)-2,5-piperazinedione hydrochloride]: the INHIBITION OF PAI-1 (degree of inhibition) reads like this: (6.25 μm) 1%; (12.5 μm) 2%; (25 μm) 2%; (50 μm) 1%; (100 μm) 5%.

Regarding `CN(C)CCCOc1ccc(/C=c2\[nH]c(=O)/c(=C/c3ccc(Cn4ccnc4)cc3)[nH]c2=O)cc1` [Compound 1975, (3Z,6Z)-3-(4-(3-Dimethylaminopropoxy)benzylidene)-6-(4-(1-imidazolylmethyl)benzylidene)-2,5-piperazinedione], the INHIBITION OF PAI-1 (degree of inhibition) by setting is: (6.25 μm) 0%; (12.5 μm) 0%; (25 μm) 0%; (50 μm) 0%; (100 μm) 7%.

Take `CN(C)CCCOc1ccc(/C=c2\[nH]c(=O)/c(=C/c3ccc(-n4ccnc4)cc3)[nH]c2=O)cc1` [Compound 1976]: the INHIBITION OF PAI-1 (degree of inhibition) (6.25 μm) worked out at 0%; the INHIBITION OF PAI-1 (degree of inhibition) (12.5 μm) is 0%; the INHIBITION OF PAI-1 (degree of inhibition) (25 μm) is 0%; the INHIBITION OF PAI-1 (degree of inhibition) (50 μm) worked out at 0%; the INHIBITION OF PAI-1 (degree of inhibition) (100 μm) came to 3%.

With `CN(C)CCN(C)Cc1ccc(/C=c2\[nH]c(=O)/c(=C/c3ccccc3)[nH]c2=O)cc1` [Compound 1982, (3Z,6Z)-3-Benzylidene-6-(4-(N-methyl-N-(2-dimethylaminoethyl)aminomethylbenzylidene-2,5-piperazinedione hydrochloride], the INHIBITION OF PAI-1 (degree of inhibition) reads like this: (6.25 μm) 1%; (12.5 μm) 6%; (25 μm) 28%; (50 μm) 49%; (100 μm) 48%.

Consider `CN1CCC(N(C)Cc2ccc(/C=c3\[nH]c(=O)/c(=C/c4ccccc4)[nH]c3=O)cc2)CC1` [Compound 1983], for which the INHIBITION OF PAI-1 (degree of inhibition) reads like this: (6.25 μm) 0%; (12.5 μm) 0%; (25 μm) 0%; (50 μm) 14%; (100 μm) 34%.

For `CN(C)CCCOc1ccc(/C=c2\[nH]c(=O)/c(=C/c3ccc(CN(C)C)cc3)[nH]c2=O)cc1` [Compound 5023], the inhibition at 20 µM turned out to be 1%.

Regarding `CN(C)CCCOc1ccc(/C=c2\[nH]c(=O)/c(=C/c3ccc(Cn4ccnc4)cc3)[nH]c2=O)cc1` [Compound 5026, (3Z,6Z)-3-(4-(3-Dimethylaminopropoxy)benzylidene)-6-(4-(1-imidazolyl)methylbenzylidene)-2,5-piperazinedione], the inhibition at 20 µM turned out to be 10% and the inhibition at 100 µM turned out to be 34%.

`CN(C)CCCOc1ccc(/C=c2\[nH]c(=O)/c(=C/c3ccncc3)[nH]c2=O)cc1` [Compound 5027]: the inhibition at 20 µM stood at 8%, the inhibition at 50 µM worked out at 8% and the inhibition at 100 µM was 12%.

On to `CN(C)CCCOc1ccc(/C=c2\[nH]c(=O)/c(=C/c3cccnc3)[nH]c2=O)cc1` [Compound 5028, (3Z,6Z)-6-(4-(3-Dimethylaminopropoxy)benzylidene)-3-(3-pyridylmethylene)-2,5-piperazinedione], for which the inhibition at 20 µM was 4%, the inhibition at 50 µM is 4% and the inhibition at 100 µM was determined as 11%.

These data come from patent US5891877A, “Pharmaceutical compounds” (Xenova Limited, priority 1996, dated 1999).
